Format in all cases: in vivo
Test [1] deals with mice with OVA-induced allergic asthma. The test can be described thus: BAL fluid cell counts, Bud vs Bud-21 P (Experimental Groups III). The procedure:
Male Balb/c SPF mice (25*2 g, 6-week-old) were purchased from the animal house facilities at the São Paulo School of Medicine (Federal University of São Paulo, Brazil). They were group-housed in a temperature-controlled room at 22° C. with a 12/12-hour light/dark cycle and allowed free access to food and water. The study is in agreement with the Ethical Principles for Animal Research established by the Brazilian College for Animal Experimentation (COBEA). According to the internal laboratory rules, euthanasia is performed if severe distress related to the test agents developed during the experiment.
In Protocol 3, the test compounds budesonide (Bud; MW: 430.53 g/mol) and budesonide 21-phosphate free acid (Bud-21 P; MW: 510.51 g/mol) were administered at equimolar doses of 3, 10 and 30 nmol/animal/day, equivalent to 1.3, 4.3 and 12.9 μg/animal/day of Bud, 1.5, 5.1 and 15.3 μg/animal/day of Bud-21 P, respectively. […]
After Penh evaluation, the mice were anesthetized with inhaled isofluorane (5% v/v in O2) and blood samples were collected from the descending abdominal aorta. […] Total cell counts were determined using a Neubauer chamber, and differential counting was carried out in cytospin (Fanem Mod 2400; São Paulo, Brazil) preparations stained with May-Grünwald dye. […]

The subject of test [2] is OVA-sensitized mice. The following applies: 1 mg/Kg i.p. before each OVA exposure; female Balb/c; vs OVA group; FIG. 10A.
Test [3] has as its system IgE. The test can be described thus: Plasma IgE levels in OVA-sensitized mice, ELISA (Experimental Groups I). Particulars: 1 mg/Kg i.p.; vs OVA group; FIG. 10 panel C. As for the experimental part: Female Balb/c (8-week-old, Charles River, Calco, Italy) were housed in the animal care facility of the Department of Pharmacy of the University of Naples, Italy in a controlled environment (temperature 21±2° C. and humidity 60±10%) and provided with standard rodent chow and water. All animals were allowed to acclimate for four days prior to experiments and were subjected to 12 h light−12 h dark schedule. Experiments were conducted during the light phase. The experimental procedures were approved by the Italian Ministry according to International and National law and policies (EU Directive 2010/63/EU and Italian DL 26/2014 for animal experiments). […] The compounds were dissolved in DMSO (Sigma Chemical Co., St. Louis, MO) at concentrations at which the determined dose per animal results from the intraperitoneal administration of 100 μl of solution (1:10 DMSO) and intra-nasal (i.n.) administration of 10 μl/animal (5 μl/nostril) of the solutions. […] Plasma levels of IgE were measured as index of sensitization. […] Total IgE levels were measured by means of ELISA using matched antibody pairs (BD Biosciences Pharmingen San Jose, CA).

The values that follow come from patent US12465614B2, “Budesonide 21-phosphate salts and pharmaceutical compositions containing the same” (GENETIC S.P.A., priority 2020, dated 2025).

Regarding `CCCC1OC2CC3C4CCC5=CC(=O)C=CC5(C)C4C(O)CC3(C)C2(C(=O)CO)O1` (stereo not drawn) [Bud, 11β,21-dihydroxy-16α,17α-(butylidenebis(oxy))pregna-1,4-diene-3.20-dione], in test [1] (3 nmol/animal/day i.n.), the “total BAL leukocytes compared with Sham” value is “still significantly higher than that observed in the Sham mice”. In addition, in test [1] (3 or 10 nmol/animal/day i.n.), the “BAL macrophages compared with Sham” value is recorded as “still significantly higher than those observed in the Sham group”.

Turning to `CCCC1OC2CC3C4CCC5=CC(=O)C=CC5(C)C4C(O)CC3(C)C2(C(=O)COP(=O)(O)O)O1` (stereo not shown) [B, Budesonide 21-phosphate], the “bronchial hyperreactivity (increased response of isolated bronchi to carbachol)” value in test [2] is given as “did not significantly affect the increased response of carbachol”. Besides, the “OVA induced increase of IgE plasma levels” value in test [3] is listed as “significantly reduced OVA induced increase of IgE plasma levels”.
